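These data come from cells grown in 96-well plates and exposed to compound for 48 hours at five concentrations. GI50 = concentration required for 50% inhibition of growth. TGI denotes the concentration required for complete inhibition of growth.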
What was measured:
Assay in all cases: DTP human tumour cell line panel, 48 h
MDA-MB-435 = test system: MDA-MB-435
HS 578T breast = test system: HS 578T breast
BT-549 breast = test system: BT-549 breast
T-47D breast = test system: T-47D breast
DU-145 prostate = test system: DU-145 prostate
PC-3 prostate = test system: PC-3 prostate

SMILES	GI50 (MDA-MB-435)	TGI (MDA-MB-435)	GI50 (HS 578T breast)	TGI (HS 578T breast)	GI50 (BT-549 breast)	TGI (BT-549 breast)	GI50 (T-47D breast)	TGI (T-47D breast)	GI50 (DU-145 prostate)	TGI (DU-145 prostate)	GI50 (PC-3 prostate)	TGI (PC-3 prostate)
CC(C)Oc1cc(OCC(=O)O)cc(C(=O)N(CCC(N)=O)C(=O)Nc2ccc(C(=O)O)cc2OC(C)C)c1	> 100 µM	> 100 µM	> 100 µM	> 100 µM	> 100 µM	> 100 µM	> 100 µM	> 100 µM	> 100 µM	> 100 µM	> 100 µM	> 100 µM
CC/C=C/[C@@H]1C=C[C@@H]2CCC[C@H]2[C@@H]1CC[C@H](O)[C@H](C)N	1.7 µM	3.27 µM	1.43 µM	3.15 µM	2.49 µM	8.03 µM	1.52 µM	3.3 µM	1.93 µM	3.98 µM	2.91 µM	12.5 µM
COC1CC(OC2OC(CO)C(O)C(O)C2O)/C(=C\C#N)C(O)C1OC (stereo not drawn)	–	> 100 µM	–	> 100 µM	–	> 100 µM	–	> 100 µM	–	> 100 µM	–	> 100 µM
C=C1C(=O)OC(CCCCCCCC)C1C(=O)O (stereo not drawn)	17.6 µM	40.4 µM	17.3 µM	> 86.6 µM	12.6 µM	26.6 µM	12.3 µM	30.6 µM	15.2 µM	30.1 µM	20.2 µM	40 µM
CC1CN(CCO)CC(C)O1 (stereo not drawn)	–	> 100 µM	–	> 100 µM	–	> 100 µM	–	> 100 µM	–	> 100 µM	–	> 100 µM
O=C(Cn1ccnc1[N+](=O)[O-])NCCO	–	> 100 µM	–	> 100 µM	–	> 100 µM	–	> 100 µM	–	> 100 µM	–	> 100 µM
Cc1ccc(CCC(=O)Nc2ncc(Cc3cc(Cl)ccc3Cl)s2)o1	0.0286 µM	0.0949 µM	0.289 µM	7.2 µM	0.29 µM	2.72 µM	1.22 µM	> 100 µM	0.351 µM	> 32.9 µM	0.244 µM	> 42.8 µM
COc1ccc(CN2CCc3c(Cl)nc(N)nc3C2=O)c(OC)c1	16.4 µM	39.5 µM	19.2 µM	50.5 µM	16.8 µM	42.2 µM	11 µM	39.8 µM	18.2 µM	40.3 µM	–	–
COc1cc([C@@H]2c3cc4c(cc3[C@H](OC3OC5COC(c6ccccc6)OC5C(O)C3O)[C@H]3COC(=O)[C@H]23)OCO4)cc(OC)c1OC (stereo partly drawn)	0.245 µM	3.08 µM	0.303 µM	1.67 µM	0.333 µM	1.99 µM	1.73 µM	5.87 µM	0.324 µM	2.04 µM	0.432 µM	22.5 µM
O=C(CCCCCCc1nc2ccc(Br)cc2[nH]1)NO	0.277 µM	1.38 µM	0.331 µM	3.21 µM	1.69 µM	32.3 µM	0.23 µM	> 100 µM	0.621 µM	5.84 µM	0.796 µM	> 100 µM
O=C1CCCC1C(=O)Nc1ccc2ccccc2c1 (stereo not drawn)	–	> 100 µM	–	–	–	> 100 µM	–	> 100 µM	–	> 100 µM	–	> 100 µM
N#Cc1c(N)nn(C(=O)c2ccc(NC(=O)c3ccccn3)cc2)c1-c1ccc(Cl)cc1	4.81 µM	> 100 µM	2.89 µM	> 100 µM	4.86 µM	> 100 µM	2.79 µM	9.15 µM	2.7 µM	7.29 µM	3.58 µM	> 100 µM
Cc1nc2c(cnn2-c2ccnc3c(C(F)(F)F)cccc23)c(=O)o1	> 100 µM	> 100 µM	> 100 µM	> 100 µM	> 100 µM	> 100 µM	> 100 µM	> 100 µM	> 100 µM	> 100 µM	> 100 µM	> 100 µM
C=C1C(=O)O[C@@H]2[C@@H]3O[C@@](C)(CC/C=C(\C)CCC[C@@H]2C)[C@H](O)C[C@@H]13	1.89 µM	5.47 µM	11.4 µM	> 100 µM	1.84 µM	4.46 µM	2.02 µM	4.7 µM	–	19.4 µM	4.31 µM	18.3 µM
COc1ccc(C(=O)CC2(O)C(=O)Nc3c(Cl)ccc(Cl)c32)cc1 (stereo not drawn)	0.225 µM	0.649 µM	1.66 µM	> 24.6 µM	2.43 µM	> 70.9 µM	9.9 µM	> 100 µM	3.44 µM	> 37.6 µM	2.8 µM	> 100 µM
Nc1nc2nc3c(nc2c(=O)[nH]1)CN(c1ccc(C(=O)O)cc1)C3=O	–	> 100 µM	–	> 100 µM	–	> 100 µM	–	> 100 µM	–	> 100 µM	–	> 100 µM
O=P(O)(O)OC1C(OP(=O)(O)O)C(OP(=O)(O)O)C(OP(=O)(O)O)C(OP(=O)(O)O)C1OP(=O)(O)O (stereo not drawn)	> 1770 µM	> 2000 µM	> 2000 µM	> 2000 µM	> 1690 µM	> 2000 µM	> 2000 µM	> 2000 µM	> 2000 µM	> 2000 µM	> 2000 µM	> 2000 µM
COc1ccc(CCNc2nc3ccccc3c3[nH]c4ccccc4c23)cc1OC	1.72 µM	3.37 µM	2.54 µM	6.17 µM	12.1 µM	26.3 µM	15.3 µM	34.2 µM	3.85 µM	15.8 µM	3.66 µM	14 µM
COc1ccc(/C=C2/SC(=Nc3c(C)nn(-c4ccccc4)c3N)NC2=O)cc1	1.27 µM	3.97 µM	2.17 µM	6.57 µM	4.94 µM	22.4 µM	3.96 µM	45.3 µM	3.73 µM	23.1 µM	4.35 µM	77.7 µM
CC(C)(O)Cn1c(=O)c(Oc2ccc(F)cc2F)cc2cnc(NC3CCOCC3)nc21	> 25 µM	> 25 µM	> 25 µM	> 25 µM	> 25 µM	> 25 µM	> 25 µM	> 25 µM	> 25 µM	> 25 µM	> 25 µM	> 25 µM

SMILES	GI50 (MDA-MB-435)	TGI (MDA-MB-435)	GI50 (HS 578T breast)	TGI (HS 578T breast)	GI50 (BT-549 breast)	TGI (BT-549 breast)	GI50 (T-47D breast)	TGI (T-47D breast)	GI50 (DU-145 prostate)	TGI (DU-145 prostate)	GI50 (PC-3 prostate)	TGI (PC-3 prostate)
COc1cc(-c2cc(-c3ccc(N(C)C)cc3)nc(N3CCC(O)CC3)c2C#N)cc(OC)c1OC	0.325 µM	1.27 µM	5.66 µM	> 100 µM	0.688 µM	6.8 µM	0.458 µM	4.07 µM	0.853 µM	> 79.6 µM	0.895 µM	> 100 µM
CCc1nc(N)nc(N)c1-c1ccc(Cl)cc1	4.6 µM	> 100 µM	> 100 µM	> 100 µM	–	> 100 µM	45.5 µM	> 100 µM	13.2 µM	> 100 µM	5.21 µM	> 100 µM
COc1ccccc1/C=C1\COc2ccc(O)c(O)c2C1=O	1.57 µM	4.96 µM	3.6 µM	> 100 µM	2.48 µM	7.53 µM	2.47 µM	> 100 µM	2.32 µM	> 100 µM	1.43 µM	11.3 µM
CCOC(=O)c1cnc2ccc(Cl)cc2c1NCCCN(C)C	17.9 µM	43.5 µM	29.5 µM	> 100 µM	27.8 µM	> 100 µM	41.5 µM	> 100 µM	25.5 µM	76.3 µM	27.3 µM	> 100 µM
NC(=O)C/C=C/CC(N)=O	–	> 100 µM	–	> 100 µM	–	> 100 µM	–	> 100 µM	–	> 100 µM	–	> 100 µM
COc1ccc([C@H]2c3cc(OC)c(OC)cc3C=C(C=O)C2CO)cc1OC (stereo partly drawn)	0.914 µM	2.81 µM	2.72 µM	17.3 µM	> 100 µM	> 100 µM	–	–	3.51 µM	21.8 µM	–	–
COc1cc[c]([Hg][Cl])cc1	1.61 µM	3.2 µM	1.96 µM	47.2 µM	2.97 µM	9.16 µM	1.68 µM	4.47 µM	5.23 µM	18.2 µM	16.2 µM	31.8 µM
Clc1ccc(Cl)c(N/N=C\c2c[nH]c3ccccc23)c1	12.2 µM	28.1 µM	3.89 µM	23.1 µM	0.196 µM	16.9 µM	–	–	10.7 µM	22.6 µM	0.915 µM	9.48 µM
CC(=O)O[C@@H]1C=CC(=O)C2(CC(=O)O[C@@H]2/C=C(\C)CCC=C(C)C)C1 (stereo partly drawn)	0.369 µM	1.6 µM	2.54 µM	> 23.4 µM	1.15 µM	3.54 µM	0.389 µM	0.873 µM	0.633 µM	2.38 µM	0.383 µM	1.19 µM
Cc1cc2c(-c3nc4ccccc4[nH]3)c(O)c(O)cc2c(O)c1-c1c(C)cc2c(-c3nc4ccccc4[nH]3)c(O)c(O)cc2c1O	0.0248 µM	18.3 µM	0.0629 µM	> 50 µM	0.0235 µM	1.13 µM	0.0168 µM	0.741 µM	0.0205 µM	10.1 µM	0.0187 µM	> 34.4 µM
O=C(Nc1ccc(Cl)c(Cl)c1)Nc1ccc(Cl)c([N+](=O)[O-])c1	1.16 µM	4.9 µM	3.65 µM	16.1 µM	1.87 µM	5.33 µM	0.729 µM	2.83 µM	1.2 µM	> 25 µM	0.921 µM	3.59 µM
O=c1c(Cl)nsnc1Cl	–	28.1 µM	–	78.9 µM	–	–	–	> 31.6 µM	–	31.5 µM	–	39.1 µM
CCOP1(=O)OCC2OC(n3cnc4c(N)ncnc43)C(O)C2O1 (stereo not drawn)	–	> 100 µM	–	> 100 µM	–	> 100 µM	–	> 100 µM	–	> 100 µM	–	> 100 µM
C#Cc1cccc(NC(=O)Nc2ccccc2NC(=O)CCl)c1	15 µM	31.5 µM	17.1 µM	56.1 µM	20 µM	65.5 µM	31.1 µM	> 82.5 µM	28.9 µM	> 82.5 µM	21.5 µM	58 µM
COc1ccc(C(=O)c2cc3c(N)c(C(=O)Nc4cccc(Cl)c4)sc3nc2C)cc1	–	–	0.957 µM	6.62 µM	7.69 µM	> 33.3 µM	2.52 µM	> 33.3 µM	1.26 µM	> 33.3 µM	1.48 µM	> 33.3 µM
CC[C@]1(O)C[C@@H]2CN(Cc3c([nH]c4ccccc34)[C@@](C(=O)OC)(c3cc4c(cc3OC)N(C)[C@H]3[C@@](O)(C(=O)OC)[C@H](OC(C)=O)[C@]5(CC)[C@@H]6C[C@@H]6CN6CC[C@]43[C@@H]65)C2)C1	0.00612 µM	0.0235 µM	0.0858 µM	> 1.33 µM	0.365 µM	> 4.38 µM	0.0562 µM	> 4.38 µM	0.0433 µM	> 4.38 µM	0.0829 µM	> 4.38 µM
COc1ccc(C(=O)/C=C/c2ccc(Cl)cc2)cc1S(N)(=O)=O	4.34 µM	15.6 µM	3.28 µM	18.4 µM	2.29 µM	7.33 µM	3.2 µM	14.4 µM	3.43 µM	13.2 µM	2.24 µM	5.24 µM
COc1ccc(NC(=O)c2ccc(NC3=C(Cl)C(=O)N(Cc4ccccc4)C3=O)cc2)cc1	5.64 µM	18.3 µM	15 µM	62.9 µM	8.27 µM	26.2 µM	9.79 µM	77.5 µM	5 µM	24.3 µM	6.74 µM	19.9 µM
CCc1cc(C(N)=O)ccc1-n1nc(C(C)C)c2c(-n3cnc(-c4cnn(C)c4)c3)ccnc21	0.719 µM	> 100 µM	12 µM	> 100 µM	6.81 µM	> 100 µM	1.83 µM	> 100 µM	0.604 µM	> 100 µM	3.61 µM	> 100 µM
O=C1CCC/C=C\C[C@H]2C=C(Cl)C(=O)/C2=C/C[C@H](CCCCC(F)(F)F)OC(=O)CCC/C=C\C[C@H]2C=C(Cl)C(=O)/C2=C/C[C@H](CCCCC(F)(F)F)O1	0.147 µM	0.307 µM	0.267 µM	7.5 µM	0.183 µM	0.502 µM	0.204 µM	1.16 µM	0.264 µM	1.42 µM	0.192 µM	0.574 µM

Reference: PubChem BioAssay (NCI)
